Source: patent publication US9475773B2, “NK3 receptor antagonist compound (NK3RA) for use in a method for the treatment of polycystic ovary syndrome (PCOS)” (ASTRAZENECA AB, priority 2013, dated 2016)

Tests used:
mice = experiment: Neurobehavioral test battery in mice; type: in vivo; conditions: oral doses 100, 300 and 600 mg/kg
Procedure: (§1) Safety pharmacology studies were carried out on NK3RA and included tests to investigate possible effects on the central nervous system (CNS), cardiovascular system, and respiratory system.

rats = experiment: Single and repeat-dose toxicology in rats; type: in vivo, rat
Procedure: Relative epididymis weight was lower at 2000 mg/kg/day.

serum testosterone [1] = experiment: SAD and MAD studies, serum testosterone in healthy male volunteers; type: in vivo, human
[2] = Pharmacokinetics in humans (healthy male subjects); type: in vivo, human
Procedure: Pharmacokinetic properties have been investigated in healthy male subjects. […] The elimination half-life for the NK3RA was approximately 7 hours. […] Renal elimination of the NK3RA or its metabolite was negligible. Following multiple dose administration, pharmacokinetic steady state was achieved within 4 days. At steady state, the exposure to the metabolite was approximately 66% of the parent circulated; the accumulation of the NK3RA in the plasma was minimal following QD dosing and was greater following BID dosing.

serum testosterone [3] = experiment: Phase II PoP schizophrenia trial, serum testosterone; type: in vivo, human; conditions: schizophrenia patients, 40 mg QD
NK1 = NK1 (Homo sapiens, UniProt P25103); experiment: Specificity over other tachykinin receptors (NK1); type: binding
Chain of NK1 (P25103 whole entry): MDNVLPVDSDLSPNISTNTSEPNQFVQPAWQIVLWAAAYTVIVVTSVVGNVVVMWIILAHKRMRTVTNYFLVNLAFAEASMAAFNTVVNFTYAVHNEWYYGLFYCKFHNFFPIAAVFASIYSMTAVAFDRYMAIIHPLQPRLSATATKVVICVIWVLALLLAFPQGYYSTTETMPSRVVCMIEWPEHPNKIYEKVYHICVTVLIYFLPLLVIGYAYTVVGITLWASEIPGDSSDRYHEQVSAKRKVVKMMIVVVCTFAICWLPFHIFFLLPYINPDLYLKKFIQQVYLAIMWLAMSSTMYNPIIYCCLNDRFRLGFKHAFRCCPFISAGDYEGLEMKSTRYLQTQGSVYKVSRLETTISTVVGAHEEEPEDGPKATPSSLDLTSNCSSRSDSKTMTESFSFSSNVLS

dogs = experiment: Single and repeat-dose toxicology in dogs; type: in vivo, dog
Description: In female dogs, ovarian uterine weights were reduced in treated animals. […] Thyroid weights were increased in the high dose group females. No other target organs have been identified.
Epididymides and prostate glands had gained maturity, but aspermia was present in all dogs and testicular immaturity remained. […]

hrNK3 receptor = molecular target: T1, hrNK3 receptor (Homo sapiens, UniProt P29371); experiment: Intracellular Calcium Mobilisation Assay (hrNK3 CHO-K1 cells, Senktide, FLIPR); type: cell-based
T1 construct: expressed in transfected cells; host or cells: CHO-K1
T1 sequence (P29371 1-465): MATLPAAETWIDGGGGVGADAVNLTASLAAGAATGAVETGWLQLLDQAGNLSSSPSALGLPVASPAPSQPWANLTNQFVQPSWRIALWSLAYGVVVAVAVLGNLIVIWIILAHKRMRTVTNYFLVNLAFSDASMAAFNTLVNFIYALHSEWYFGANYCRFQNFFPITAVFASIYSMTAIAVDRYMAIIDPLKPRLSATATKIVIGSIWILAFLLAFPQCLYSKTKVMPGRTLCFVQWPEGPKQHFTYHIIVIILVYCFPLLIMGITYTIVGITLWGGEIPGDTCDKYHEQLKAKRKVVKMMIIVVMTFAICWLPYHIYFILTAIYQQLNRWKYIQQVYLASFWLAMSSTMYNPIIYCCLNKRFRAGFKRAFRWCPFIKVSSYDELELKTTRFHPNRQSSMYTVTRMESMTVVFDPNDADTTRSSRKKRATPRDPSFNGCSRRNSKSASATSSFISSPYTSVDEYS
Procedure: The activity of a compound in antagonising the hrNK3 receptor expressed in CHO cells may be measured in the following Intracellular Calcium Mobilisation Assay:
CHO-K1 cells stably transfected with human recombinant Neurokinin-3 receptor (hrNK3 CHO-K1) were cultured in […] tissue culture flasks as monolayers in complete Ham's F-12 media (supplemented with 10% (v/v) FBS, 2 mM L-glutamine and […] Hygromycin B). Cultures are maintained under standard tissue culture conditions. For experiments, PBS was used to wash cells free of culture media and Trypsin was used to detach cells from the flask surface. Cells were counted, pelleted by centrifugation (100 g for 5 min) and resuspended in cell plating medium (UltraCULTURE by BioWhittaker 12-725F containing 200 mM L-Glutamine). […]
Changes in intracellular free calcium were measured fluorometrically by loading hrNK3 CHO-K1 in 384-well plates with the calcium sensitive fluorescent dye, Fluo-4AM as described previously (Xiong et. al., Bioorg. Med. Chem. Lett. 2011, 21, 1896). […]
A test compound was pre-dissolved in DMSO and incubated with cells to a final concentration of 0.1% (v/v) DMSO for 15 minutes. Assays were initiated by the addition of Senktide (purchased from Bachem) and the transient increase in Fluo-4-fluorescence monitored using a FLIPR (Fluorometric Imaging Plate Reader, Molecular Devices, Sunnyvale, U.S.A.).

rat [4] = experiment: Rat cocaine drug discrimination assay; type: in vivo; conditions: oral doses up to 46 mg/kg
rat [5] = experiment: Modified rat Irwin test; type: in vivo; conditions: oral 46, 460 and 2022 mg/kg
Procedure: as §1

hERG channel = hERG channel (Homo sapiens, UniProt Q12809); experiment: hERG channel in vitro (tail current); type: cell-based
Chain of hERG channel (Q12809 whole entry): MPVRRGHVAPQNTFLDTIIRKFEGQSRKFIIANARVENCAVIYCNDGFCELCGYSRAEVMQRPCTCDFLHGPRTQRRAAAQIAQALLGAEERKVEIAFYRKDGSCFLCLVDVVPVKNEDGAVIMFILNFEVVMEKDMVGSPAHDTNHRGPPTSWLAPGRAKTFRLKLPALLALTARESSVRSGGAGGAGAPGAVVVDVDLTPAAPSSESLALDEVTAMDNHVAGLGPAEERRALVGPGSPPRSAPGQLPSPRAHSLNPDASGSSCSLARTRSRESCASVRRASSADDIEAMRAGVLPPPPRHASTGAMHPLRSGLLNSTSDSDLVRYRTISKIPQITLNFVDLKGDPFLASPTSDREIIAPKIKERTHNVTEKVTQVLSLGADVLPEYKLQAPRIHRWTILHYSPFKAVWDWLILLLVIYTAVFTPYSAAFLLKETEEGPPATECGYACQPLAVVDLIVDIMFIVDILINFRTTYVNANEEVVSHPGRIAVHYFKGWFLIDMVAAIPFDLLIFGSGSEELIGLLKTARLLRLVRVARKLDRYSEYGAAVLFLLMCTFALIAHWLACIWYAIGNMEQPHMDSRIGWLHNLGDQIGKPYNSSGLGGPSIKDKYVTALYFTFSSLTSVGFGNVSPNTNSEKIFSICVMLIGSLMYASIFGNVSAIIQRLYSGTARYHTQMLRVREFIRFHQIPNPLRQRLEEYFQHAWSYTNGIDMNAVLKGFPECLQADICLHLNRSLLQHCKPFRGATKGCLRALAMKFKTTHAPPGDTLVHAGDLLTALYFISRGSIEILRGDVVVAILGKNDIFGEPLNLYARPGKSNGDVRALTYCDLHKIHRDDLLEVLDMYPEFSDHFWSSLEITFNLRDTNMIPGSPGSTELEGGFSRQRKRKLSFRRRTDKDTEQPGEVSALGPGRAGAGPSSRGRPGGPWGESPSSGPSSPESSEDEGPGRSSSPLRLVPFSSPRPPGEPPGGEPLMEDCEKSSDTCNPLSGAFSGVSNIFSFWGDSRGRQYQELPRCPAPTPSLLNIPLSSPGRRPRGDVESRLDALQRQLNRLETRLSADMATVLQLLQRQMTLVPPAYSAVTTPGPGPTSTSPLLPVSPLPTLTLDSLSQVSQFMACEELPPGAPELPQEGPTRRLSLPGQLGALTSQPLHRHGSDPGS

[6] = rat 3 month study, 2000 mg/kg/day

Structure (SMILES): CC[C@H](NC(=O)c1c(NS(C)(=O)=O)c(-c2ccccc2)nc2ccccc12)c1ccccc1 [NK3RA, 3-(methanesulfonamido)-2-phenyl-N-[(1S)-1-phenylpropyl]quinoline-4-carboxamide]
- neurobehavioral effects (mice): transient deficits in gait and spontaneous motor activity
- time to full recovery (mice): ≤ 24 h
- histological changes (rats; rat 3 month study): no NK3RA-related histological changes
- absolute testis weight (rats; [6]): lower
- relative epididymis weight (rats; [6]): lower
- relative testis weight (rats; rat 3 month study, 200 and 2000 mg/kg/day (dose-related)): lower than controls
- findings at the highest doses (rats; rats): increased liver weights with no histological correlate
- findings in the female reproductive system, repeat-dose toxicology studies (rats; rats): no findings in the female reproductive system
- tolerability, multiple dosing for three month (rats; rats, up to 2000 mg/kg/day): well tolerated
- tolerability, single dosing (rats; rats, up to the limit dose of 2000 mg/kg): well tolerated
- serum testosterone (serum testosterone [1]; healthy male volunteers, SAD 1-80 mg, MAD 5 mg QD to 30 mg BID for up to 6 days): dose dependent reduction in serum testosterone
- durability of total testosterone reduction (serum testosterone [1]; male volunteers and male schizophrenia patients): reductions in total testosterone levels durable up to 28 days
- accumulation in the plasma ([2]; BID dosing (compared with QD)): greater
- accumulation in the plasma ([2]; QD dosing): minimal
- absorption following oral dosing ([2]; healthy male subjects): quickly absorbed
- renal elimination ([2]; healthy male subjects): negligible
- time dependence of pharmacokinetics ([2]; human, in vivo): time independent
- half-life ([2]; human, plasma, oral, healthy male subjects, read-out: elimination half-life (converted)): ~7 h
- time to pharmacokinetic steady state ([2]; multiple dose administration): ≤ 4 days
- dose proportionality of AUC and Cmax ([2]; up to approximately 80 mg): dose proportional
- serum testosterone (serum testosterone [3]): reduction in serum testosterone
- specificity for NK3 over NK1 (NK1): greater than 1200 fold
- NOEL (testis, epididymis and prostate weights) (dogs; dog): no NOEL was established
- plasma testosterone levels throughout the study (dogs; dog): virtually totally suppressed
- testes weights following the recovery period (dogs; dog): only partially returned to control values
- time after dosing by which plasma testosterone was very low (dogs; dog): ≤ 4 h
- hepatobiliary toxicity (dogs; dogs): hepatobiliary toxicity in one high dose male
- thyroid weights (dogs; dogs, high dose group females): increased
- liver weights (dogs; dogs, mid and high doses): Increased
- tolerability, multiple dosing for three month (dogs; dogs, up to 1000 mg/kg/day): well tolerated
- tolerability, single dosing (dogs; dogs, up to the limit dose of 2000 mg/kg): well tolerated
- female reproductive findings, 3-month study (dogs; female dogs): reductions in ovarian and uterine weights and an increased incidence of anestrus
- ovarian uterine weights (dogs; female dogs): reduced
- recovery of female reproductive findings (dogs; female dogs, following 3 months off-dose): complete recovery
- target organs in males (dogs; male dogs): the testis, epididymis, and prostate were target organs
- activity at the hrNK3 receptor expressed in CHO cells (hrNK3 receptor): antagonist of the hrNK3 receptor
- activity in cocaine drug discrimination (rat [4]): no activity
- findings in modified Irwin test (rat [5]): no significant findings
- inhibition at 97 µM (hERG channel; human, 97 μM): 25%
- activity at the hERG channel (hERG channel; in vitro): only weakly active
